Laboratory results reported in publication PMC11017252, “Copper(II) Complexes with 2,2′:6′,2″-Terpyridine Derivatives Displaying Dimeric Dichloro−μ–Bridged Crystal Structure: Biological Activities from 2D and 3D Tumor Spheroids to In Vivo Models” (Journal of Medicinal Chemistry, 2024).

Legend:
[1] = test system: HCT116, A2780, A549, and MCF7 cell lines; parameters: method as in PMID 28702618; settings: cited from earlier work
CAM = test system: CAM; parameters: method as in PMID 33823390; settings: cited from earlier work
[2] = test system: HCT116 (colorectal carcinoma cell line); assay: MTS cell viability assay, 2D culture, HCT116; format: cell-based, human; settings: 48 h of exposure
Description: (§1) The in vitro cytotoxic potential of Cu(II) complexes in tumor and healthy cells was assessed using the MTS assay, a colorimetric method that allows the quantification of viable cells in culture.[46]
Cell culture and maintenance
(§2) The cancer cell lines HCT116 (colorectal carcinoma) and A2780 (ovarian carcinoma) were obtained
(§3) from the American Type Culture Collection (ATCC®, Manassas, VA, USA), as well as the normal
human primary dermal fibroblasts.
(§4) Apart from the A2780 cell line, which was cultured in Roswell Park Memorial Institute (RPMI)
(§5) medium, all cells were cultured in Dulbecco’s modified Eagle medium (DMEM). Both media were
(§6) supplemented with 10% (v/v) fetal bovine serum (FBS) and 1% (v/v) of a Pen/Strep
(§7) (Penicillin/Streptomycin) solution. To maintain the resistant phenotype of the HCT116DoxR cell line,
(§8) the medium was additionally supplemented with 3.6 μM Dox4. All media and supplements were
(§9) purchased from Thermo Fischer Scientific (Waltham, MA, USA).
(§10) Cells were maintained in 25 cm2 T-flasks (T25) in a humidified atmosphere at 37 °C and 5% (v/v) CO
(§11) (SANYO CO2 Incubator, Electric Biomedical Co., Osaka, Japan).
(§12) The effect of Cu(II) complexes on cell viability was studied in HCT116, HCT116DoxR, and A2780
(§13) cancer cell lines and in normal human primary fibroblasts. Cells were seeded in a density of 0.75×105
(§14) cells/mL into 96-well plates and incubated in a humidified atmosphere at 37 °C and 5% (v/v) CO2 for
(§15) 24 h. After incubation, complexes were weighed, immediately solubilized in 100% (v/v) DMSO and
(§16) diluted for the final concentration with cell culture medium. The medium in each well was replaced by
(§17) a solution of fresh medium containing each Cu(II) complex (concentrations ranging from 0.01 μM to
(§18) as negative and positive controls, respectively.
(§19) Following a second incubation period of 48 h in the same conditions, the supernatant of each well was
(§20) replaced by a solution containing MTS reagent (3-(4,5-dimethylthiazol-2-yl)-5-(3-
(§21) carboxymethoxyphenyl)-2-(4-sulfophenyl)-2H-tetrazolium) provided by the CellTiter 96® AQueous
(§22) Non-Radioactive Cell Proliferation Assay Kit (Promega, Madison, WI, EUA) for a 30 minutes
(§23) incubation. The percentage of viable cells was indirectly determined by the spectrophotometric
(§24) quantification at 490 nm in a microplate reader, Tecan Infinite M200 (Tecan, Männedorf, Switzerland)
(§25) of formazan production, resultant from the reduction of the MTS reagent by mitochondrial
(§26) dehydrogenases. Since these enzymes are only active in viable cells, the absorbance value measured is
(§27) directly proportional to the percentage of viable cells in culture5.
(§28) By analysing the cell viability as a function of log10(concentration) using Prism 8 (GraphPad
(§29) in cell viability) of each complex in the respective cell line at 48 h. The selective index (SI) for each
(§30) complex was also determined by dividing the IC50 of human fibroblasts by the respective IC50 in each
(§31) cancer cell line (allowing us to understand how much active a complex is in tumor versus normal cell).

[3] = test system: A2780 (ovarian carcinoma cell line); assay: MTS cell viability assay, 2D culture, A2780; format: cell-based, human; settings: 48 h of exposure
Description: as §1
Cell culture and maintenance
as §2, §3
human primary dermal fibroblasts.
as §4, §5, §6, §7, §8, §9, §10, §11, §12, §13, §14, §15, §16, §17, §18, §19, §20, §21, §22, §23, §24, §25, §26, §27, §28, §29, §30, §31

[4] = test system: normal human primary dermal fibroblasts; assay: MTS cell viability assay, normal fibroblasts; format: cell-based; settings: 48 h of exposure
Description: as §1
Cell culture and maintenance
as §2, §3
human primary dermal fibroblasts.
as §4, §5, §6, §7, §8, §9, §10, §11, §12, §13, §14, §15, §16, §17, §19, §20, §22, §23, §24, §25

HCT116DoxR spheroids = assay: MTS cell viability assay in 3D HCT116DoxR spheroids; format: cell-based, human; settings: 6-day-old spheroids, 48 h of exposure
BAX and BCL-2 = BAX and BCL-2 protein expression by Western Blot; format: cell-based, human; settings: HCT116DoxR, 48 h, IC50; normalized to β-actin
pUC18 plasmid DNA = assay: pDNA cleavage in vitro (agarose gel electrophoresis); format: biochemical, E. coli; settings: for concentration at which the interaction with pDNA reaches saturation / pDNA cleavage mode: 100 ng pUC18, 24 h; for pDNA cleavage mode: 5–100 μM complex; for effect of NaN3 (singlet oxygen scavenger) on pDNA cleavage by the complex: 24 h, 50 μM complex + 50 μM NaN3
EB–ct-DNA adduct = assay: Ethidium bromide displacement fluorescence assay; format: binding, calf; settings: PBS; for apparent binding constant (Kapp): EB displacement, KEB = 1 × 10^7 M^–1; for Stern–Volmer quenching constant KSV: EB–ct-DNA, 0–40 μM complex
fibroblasts = assay: Cell migration (wound healing) assay; format: cell-based, human; settings: 24 h; complexes at IC50, Dox 0.4 μM; vs DMSO
Text: A wound healing assay was therefore carried out on fibroblasts to study the influence of the Cu(II) complexes on cell migration in vitro. Skin fibroblasts were the model chosen for this assay as they are essential for regenerating damage in this tissue.[85] […]
intrinsic binding constant Kb can be obtained from the ratio of the slope to the intercept of the linear fit of the plot [DNA]/[εa−εf] versus [DNA].
For emission quenching experiments, equimolar solution of ct-DNA and ethidium bromide (EB, Sigma Aldrich) was prepared and allowed to incubate for 2 h in the dark. The tested complexes were titrated into the formed EB–ct-DNA adduct and incubated for additional 30 min. The final concentration of the EB–ct-DNA adduct was 50 μM and the concentration of the complexes varied from 0 to 40 μM. The fluorescence spectra were recorded on FLS-980 spectrofluorometer (Edinburgh Instruments, Livingston, United Kingdom) with excitation wavelength 515 nm and emission wavelength of 620 nm. The apparent binding constant (Kapp) was calculated using the Equations : […]
where I0 and I are the fluorescence intensity in the absence and presence of the complexes; KSV is the Stern-Volmer quenching constant; [Q] is the concentration of the complexes; [Q1/2] is the concentration of the complex causing 50% reduction in the fluorescence intensity; K = 1×107 […]
conditions mentioned before until the presence of a confluent monolayer was detected. A scratch was made on the surface of each well using a sterile 200 μL micropipette tip and the cells were […]
Each plate was then incubated for 24 h in the same conditions mentioned before. […]
The width of each scratch in each image was measured via ImageJ software. […]
The ex-ovo CAM assay was performed to evaluate the copper(II) complexes’ effect on angiogenesis, as already described in literature11,12. […] Newly formed blood vessels were manually counted via ImageJ software. […]
All results were expressed as mean ± SEM of at least two independent biological assays, each obtained by technical duplicates, unless otherwise specified. […]

chicken embryos = assay: Ex-ovo chick chorioallantoic membrane (CAM) assay; format: in vivo; settings: IC50, vs DMSO control
[5] = Stability and solubility in biological medium (RPMI) by UV-vis; format: physicochemical; settings: colorless RPMI, 50 μM, 37 °C
Description: The stability of complexes 2, 3, 5, and 7 was assessed by UV–vis spectroscopy at 0, 24, and 48 h of incubation at 37 °C.
In Figure S18, it is possible to observe the spectra of all Cu(II) complexes, where high-energy absorption bands correspond to π → π* and n → π* transitions with peaks in the 230–330 and 330–400 nm ranges, respectively, that are associated with the aromatic rings of terpyridines.[39],[49] Analyzing the spectra of complexes 2 and 3, it is possible to detect the existence of 3 bands (maximum ∼240, ∼ 290, and between 320 and 340 nm). […] Complex 7 only has 2 bands of maximum absorbance at 290 nm and between 320 and 340 nm.
Nevertheless, all Cu(II) complex solutions were freshly prepared and added immediately to cells.

HCT116DoxR cells [6] = assay: Cell cycle progression (PI, flow cytometry); settings: for cell cycle progression after 12 h / cell cycle progression after 18 h: IC50, thymidine double block
Description: Therefore, we have assessed the cytostatic potential of complexes 2, 3, 5, and 7, and their ability to interfere with the progression of the cell cycle using the fluorescent marker PI. Since this marker can intercalate with DNA, the measurement of the fluorescence emitted by flow cytometry makes it possible to assess the DNA content at each stage of the cell cycle (G0/G1, S, and G2/M).[67] To ensure that all the cells were in the same phase before their exposure to the complexes, a double block was carried out with thymidine, a DNA synthesis inhibitor.[67]
HCT116DoxR cell line was seeded in 6-well plates in a density of 1×10^5 cells/mL and incubated for
24 h. Afterwards, the culture medium was replaced by medium with IC50 concentrations of different
HCT116DoxR cell line was seeded in 6-well plates in a density of 1×10^5 cells/mL, incubated for 8 h in
a humidified atmosphere at 37 °C and 5% (v/v) CO2, and later synchronized in early S-phase with a 2
mM thymidine solution (Merck, Germany) for a 16 h period. Later, medium with thymidine was
replaced by fresh media and, after 8 h a second block with thymidine was performed in the same
concentrations of Cu(II) complexes. 0.1% (v/v) DMSO was used as the vehicle control while 5 μM
After treatment, cells were incubated for 9, 12,

[7] = test system: HCT116DoxR (Dox-resistant colorectal carcinoma cell line); assay: MTS cell viability assay, 2D culture, HCT116DoxR; settings: read-out: IC50 (μM) HCT116DoxR, 48 h of exposure
Description: as §1
In this regard, cell viability was performed for each of the ligands on HCT116DoxR and fibroblasts.
Cell culture and maintenance
as §2, §3
human primary dermal fibroblasts.
as §4, §5, §6, §7, §8, §9, §10, §11, §12, §13, §14, §15, §16, §17, §18, §19, §20, §21, §22, §23, §24, §25, §26, §27

HCT116DoxR cells [8] = assay: Annexin V-FITC/PI apoptosis assay by flow cytometry; settings: 48 h; for cells (%) early apoptosis / cells (%) late apoptosis / cells (%) necrosis / cells (%) viable / percentage of apoptosis (early + late): complexes at IC50, Dox 6 μM, cisplatin 5 μM; for fold increase in apoptotic cells, normalized to DMSO: complexes at IC50, cisplatin 5 μM
Description: To evaluate the cell death mechanism involved in the cytotoxic effect of the selected complexes, a double-staining with Annexin V-FITC and PI was performed. […] The use of Annexin V conjugated with the fluorophore FITC allows the quantification of this interaction and subsequent identification of cells in apoptosis by flow cytometry. Furthermore, PI is a fluorophore that can intercalate with DNA and that can only enter the cell when the membrane is either compromised or ruptured, making it possible to identify cells undergoing late apoptosis and necrosis. Therefore, the double staining makes it possible to distinguish between viable cells (FITC^–; IP^–), those undergoing initial apoptosis (FITC^+; IP^–), those undergoing late apoptosis (FITC^+; IP^+), and those undergoing necrosis (FITC^–; IP^+).[55],[58]
Evaluation of apoptosis induction in HCT116DoxR cell line by flow cytometry The induction of apoptosis in HCT116DoxR cell line was evaluated by flow cytometry, using the
Annexin V-FITC Apoptosis Detection Kit (Thermo Fisher Scientific, Waltham, MA, USA). Cells
were seeded in 6-well plates at a cell density of 1×10^5 cells/mL and incubated for 24 h. Afterwards,
culture medium was replaced by medium with different Cu(II) complexes at their IC50 concentrations.
After 48 h of incubation, cells were washed with PBS 1x, detached from each well with TrypLETM
Express and washed again with PBS 1x. Cells were then resuspended in 1x annexin-binding buffer and
incubated at rt for 15 min with Annexin V-FITC and 100 μg/mL PI.
All samples were analysed by an Attune® Acoustic Focusing Flow Cytometer (Thermo Fischer
Scientific, Waltham, MA, USA) and the results were processed with Attune® Cytometric software

Compound | IC50 [2] | IC50 [3] | IC50 [4] | IC50 (HCT116DoxR spheroids) | expression of BAX compared to the DMSO control (BAX and BCL-2) | expression of BCL-2 compared to the DMSO control (BAX and BCL-2) | concentration at which the interaction with pDNA reaches saturation (pUC18 plasmid DNA) | pDNA cleavage mode (pUC18 plasmid DNA) | effect of NaN3 (singlet oxygen scavenger) on pDNA cleavage by the complex (pUC18 plasmid DNA) | apparent binding constant (Kapp) (EB–ct-DNA adduct) | Stern–Volmer quenching constant KSV (EB–ct-DNA adduct) | fibroblast migration (% of remission) (fibroblasts) | formation of new blood vessels after 24 h (chicken embryos) | formation of new blood vessels after 48 h (chicken embryos) | maximum absorbances after 24 or 48 h compared to 0 h (reduction of solubility) [5] | cell cycle progression after 12 h (HCT116DoxR cells [6]) | IC50 [7] | cells (%) early apoptosis (HCT116DoxR cells [8]) | cells (%) late apoptosis (HCT116DoxR cells [8]) | cells (%) necrosis (HCT116DoxR cells [8]) | other results
Cn1cccc1-c1cc(-c2ccccn2)nc(-c2ccccn2)c1.[Cl][Cu][Cl] | – | – | – | – | – | – | – | – | – | – | – | – | – | – | – | – | – | – | – | – | cytotoxic activity [1]: no cytotoxic activity
F[P-](F)(F)(F)(F)F.[Cl][Cu].c1ccc(-c2cc(-c3ccc4ccccc4n3)cc(-c3ccccn3)n2)nc1 [[Cu(4′-(2-quinolinyl)-terpy)Cl](PF6)] | – | – | – | – | – | – | – | – | – | – | – | – | – | – | – | – | – | – | – | – | toxicity in an in vivo model of CAM (CAM): low toxicity
F[P-](F)(F)(F)(F)F.F[P-](F)(F)(F)(F)F.[Cl][Cu].[Cl][Cu].c1ccc(-c2cc(-c3ccnc4ccccc34)cc(-c3ccccn3)n2)nc1.c1ccc(-c2cc(-c3ccnc4ccccc34)cc(-c3ccccn3)n2)nc1 [complex 2, [Cu2Cl2(4′-(4-Quinolyl)-terpy)2](PF6)2] | 0.31 ± 0.01 µM | 0.54 ± 0.07 µM | 31.36 ± 0.02 µM | 15.2 ± 0.8 µM | decreases | increases | 25 μM | single strands | no effect | 1.23 × 10^6 M^–1 | 2450 M⁻¹ | lower compared to the positive control Dox | no pro- or antiangiogenic effect | antiangiogenic effect | slight decrease | delays cell cycle progression in the G2/M phase | 0.25 ± 0.02 µM | 47.3 ± 2.9% | 22.7 ± 4.6% | 0.3 ± 0.4% | cell cycle progression after 24 h (HCT116DoxR cells [6]; 24 h, complexes at IC50, cisplatin 5 μM): delay the cycle in the G2/M phase; cells (%) viable (HCT116DoxR cells [8]): 29.7 ± 6.3%; percentage of apoptosis (early + late) (HCT116DoxR cells [8]): 65 to 70%; fold increase in apoptotic cells, normalized to DMSO (HCT116DoxR cells [8]): ~6.4 fold
COc1ccc(-c2cc(-c3ccccn3)nc(-c3ccccn3)c2)c2ccccc12.COc1ccc(-c2cc(-c3ccccn3)nc(-c3ccccn3)c2)c2ccccc12.F[P-](F)(F)(F)(F)F.F[P-](F)(F)(F)(F)F.[Cl][Cu+].[Cl][Cu+] [complex 3, [Cu2Cl2(4′-(4-Methoxy-1-naphthyl)-terpy)2](PF6)2] | 0.13 ± 0.02 µM | 0.66 ± 0.07 µM | 6.24 ± 0.03 µM | 6.35 ± 0.12 µM | decreases | increases | 50 μM | single strands | partially reversed | 3.07 × 10^6 M^–1 | 6060 M⁻¹ | lower compared to the positive control Dox | antiangiogenic potential | greater decrease in the % of blood vessels formed | slight decrease | delays cell cycle progression in the G2/M phase | 0.15 ± 0.01 µM | 51.3 ± 5.7% | 14.9 ± 3.6% | 0.2 ± 0.2% | cell cycle progression after 18 h (HCT116DoxR cells [6]): delay in cycle progression in the G0/G1 phase; cells (%) viable (HCT116DoxR cells [8]): 33.7 ± 3.6%; percentage of apoptosis (early + late) (HCT116DoxR cells [8]): 65 to 70%; fold increase in apoptotic cells, normalized to DMSO (HCT116DoxR cells [8]): ~6.4 fold
F[P-](F)(F)(F)(F)F.F[P-](F)(F)(F)(F)F.[Cl][Cu].[Cl][Cu].c1ccc(-c2cc(-c3ccco3)cc(-c3ccccn3)n2)nc1.c1ccc(-c2cc(-c3ccco3)cc(-c3ccccn3)n2)nc1 [complex 5, [Cu2Cl2(4′-(2-Furanyl)-terpy)2](PF6)2] | 0.26 ± 0.03 µM | 0.79 ± 0.05 µM | 12.57 ± 0.02 µM | 14 ± 0.6 µM | decreases | increases | 50 μM | single and double strands | almost completely reversed | 1.84 × 10^6 M^–1 | 3640 M⁻¹ | lower compared to the positive control Dox | antiangiogenic potential | greater decrease in the % of blood vessels formed | slight decrease | delays cell cycle progression in the G2/M phase | 0.22 ± 0.01 µM | 47.2 ± 10.2% | 18.7 ± 5.4% | 0.2 ± 0.2% | cell cycle progression after 18 h (HCT116DoxR cells [6]): delay in cycle progression in the G0/G1 phase; cells (%) viable (HCT116DoxR cells [8]): 33.9 ± 5.3%; percentage of apoptosis (early + late) (HCT116DoxR cells [8]): 65 to 70%; fold increase in apoptotic cells, normalized to DMSO (HCT116DoxR cells [8]): ~6.4 fold
